Values quoted from earlier work in patent US20240228667A9, “Methods for Treating Multiple Myeloma” (Celgene Corporation, priority 2021, published 2024).

Test system: acute myeloid leukemia (AML) at relapse
Settings: CT-011 administered alone

## CT-011: anti-PD-1 antibody, a humanized antibody
  response in treating acute myeloid leukemia (AML) at relapse: failed to show response
